{"source": "patent US9999220B2", "about": "“Method for repelling rodents” (Arkion Life Sciences, LLC, priority 2014, dated 2018)", "key": {"[1]": {"system": "black-tailed prairie dogs", "experiment": "Concentration-response repellency experiment, treated whole corn, black-tailed prairie dogs", "format": "in vivo, Cynomys ludovicianus", "settings": "black-tailed prairie dogs offered corn seeds treated with 0.5-4% anthraquinone (target concentrations), 1-day test", "excerpt": "(§1) These values can also be used to form ranges, such as, for example, from about 15% to about 85% repellency, with preferred ranges for particular rodent families ranging from about 20-50%; 25-40%; 40-55%; and 55-85%. The percent repellency is based on the percentage of the treated item which is not consumed by the animal.\n(§2) We conducted a concentration-response experiment with an anthraquinone-based repellent (Avipel®, a.i. 50% 9,10-anthraquinone; Arkion Life Sciences, New Castle, Del.) to determine anthraquinone repellency for black-tailed prairie dogs (Cynomys ludovicianus, N=44 males and females; Werner et al. 2011). During a 3-day pre-test, we offered one bowl (untreated whole corn) in individual cages at 08:00 h, daily. […] We randomly assigned repellent treatments among groups. During the 1-day test, we offered one bowl (repellent-treated whole corn) at 08:00 h. Consumption of treated corn seeds was measured (±0.1 g) at 08:00 h on the day subsequent to the test.\nWe observed 24-37% repellency (FIG. 1) during our concentration-response experiment with black-tailed prairie dogs offered corn seeds treated with 0.5-4% anthraquinone (target concentrations; Werner et al. 2011)."}, "California voles": {"system": "California voles", "experiment": "Concentration-response repellency experiment, treated whole oats, California voles", "format": "in vivo, Microtus californicus", "settings": "California voles offered oats treated with 0.5-2% anthraquinone (target concentrations), 1-day test", "excerpt": "as §1\nas §2, with “California (Microtus californicus, N=30” for “black-tailed prairie dogs (Cynomys ludovicianus, N=44”, “females).” for “females; Werner et al. 2011).”, “oats)” for “corn)”, “oats” for “corn seeds”\nWe observed 58-84% repellency (FIG. 2) during our concentration-response experiment with California voles offered oats treated with 0.5-2% anthraquinone (target concentrations)."}, "deer mice": {"system": "deer mice", "experiment": "Concentration-response repellency experiment, treated whole oats, deer mice", "format": "in vivo, Peromyscus maniculatus", "settings": "deer mice offered oats treated with 0.25-2% anthraquinone (target concentrations), 1-day test", "method": "During a 3-day pre-test, we offered one bowl (untreated whole oats) in individual cages at 08:00 h, daily. […] We randomly assigned repellent treatments among groups. During the 1-day test, we offered one bowl (repellent-treated whole oats) at 08:00 h. Consumption of treated oats was measured (±0.1 g) at 08:00 h on the day subsequent to the test."}, "[2]": {"system": "Richardson's ground squirrels", "experiment": "Concentration-response repellency experiment, treated whole oats, Richardson's ground squirrels", "format": "in vivo, Urocitellus richardsonii", "settings": "Richardson's ground squirrels offered oats treated with 0.5-2% anthraquinone (target concentrations), 1-day test", "excerpt": "as §1\nas §2, with “a.i.50%” for “a.i. 50%”, “Richardson's ground squirrels (Urocitellus richardsonii, N=28” for “black-tailed prairie dogs (Cynomys ludovicianus, N=44”, “females).” for “females; Werner et al. 2011).”, “oats)” for “corn)”, “oats” for “corn seeds”\nWe observed 40-56% repellency (FIG. 3) during our concentration-response experiment with Richardson's ground squirrels offered oats treated with 0.5-2% anthraquinone (target concentrations)."}, "Sprague-Dawley rats": {"system": "Sprague-Dawley rats", "experiment": "13-week single-choice feeding study in Sprague-Dawley rats (rat repellency example)", "format": "in vivo", "settings": "for Body Weight Day 1: Day 1, mean ± SD; for Body Weight Week 3: Week 3, mean ± SD; for Body Weight Week 7: Week 7, mean ± SD; for Body Weight Week 13: Week 13, mean ± SD; for Total Weight Gain % difference from control / Total Weight Gain: over 13 weeks; for Total Weight Gain: mean ± SD", "protocol": "Anthraquinone is not a classic toxicant but a feeding study on Sprague-Dawley rats was done to determine effects of long term feeding where there was a single choice offered to rats over a 13 week period.\nAnthraquinones was administered to four groups of 10 male and 10 female Sprague-Dawley rats/group at concentrations of 0, 500, 2000, or 7500 ppm (0, 40, 125, or 495 mg/kg/day in males; 0, 44, 150, or 661 mg/kg/day in females) for 4 consecutive weeks. Beginning with Week 5, the 500 ppm diet was reduced to 200 ppm resulting in lowering the doses to 11 and 16 mg/kg/day for males and females, respectively, through the end of the 13-week experimental period.\nSignificant reduction in feeding with a single choice indicates a non-lethal repellency."}, "[3]": {"settings": "females, 500 ppm diet (200 ppm from Week 5)"}, "[4]": {"settings": "males, 500 ppm diet (200 ppm from Week 5)"}}, "data": [{"smiles": "O=C1c2ccccc2C(=O)c2ccccc21", "note": "[anthraquinone, 9,10-anthraquinone]", "values": [{"measurement": "repellency", "setting": "[1]", "result": "24-37%"}, {"measurement": "repellency", "setting": "California voles", "result": "58-84%"}, {"measurement": "repellency", "setting": "deer mice", "result": "19-52%"}, {"measurement": "repellency", "setting": "[2]", "result": "40-56%"}, {"measurement": "repellency observed (lack of weight gain from inhibited feeding)", "setting": "Sprague-Dawley rats; 500 ppm in diet, single choice, 13 weeks", "result": "some repellency was observed"}, {"measurement": "Body Weight Day 1", "setting": "Sprague-Dawley rats; [3]", "result": "185 ± 12.2", "unit": "G"}, {"measurement": "Body Weight Week 3", "setting": "Sprague-Dawley rats; [3]", "result": "223 ± 12.4", "unit": "G"}, {"measurement": "Body Weight Week 7", "setting": "Sprague-Dawley rats; [3]", "result": "254 ± 14.2", "unit": "G"}, {"measurement": "Body Weight Week 13", "setting": "Sprague-Dawley rats; [3]", "result": "274 ± 15.0", "unit": "G"}, {"measurement": "Total Weight Gain % difference from control", "setting": "Sprague-Dawley rats; [3]", "result": "−27", "unit": "%"}, {"measurement": "Total Weight Gain", "setting": "Sprague-Dawley rats; [3]", "result": "89 ± 10.1", "unit": "Grams"}, {"measurement": "Body Weight Day 1", "setting": "Sprague-Dawley rats; females, 2000 ppm diet", "result": "188 ± 14.6", "unit": "G"}, {"measurement": "Body Weight Week 3", "setting": "Sprague-Dawley rats; females, 2000 ppm diet", "result": "212 ± 14.2", "unit": "G"}, {"measurement": "Body Weight Week 7", "setting": "Sprague-Dawley rats; females, 2000 ppm diet", "result": "238 ± 11.7", "unit": "G"}, {"measurement": "Body Weight Week 13", "setting": "Sprague-Dawley rats; females, 2000 ppm diet", "result": "247 ± 16.3", "unit": "G"}, {"measurement": "Total Weight Gain % difference from control", "setting": "Sprague-Dawley rats; females, 2000 ppm diet", "result": "−51", "unit": "%"}, {"measurement": "Total Weight Gain", "setting": "Sprague-Dawley rats; females, 2000 ppm diet", "result": "59 ± 9.2", "unit": "Grams"}, {"measurement": "Body Weight Day 1", "setting": "Sprague-Dawley rats; females, 7500 ppm diet", "result": "189 ± 11.8", "unit": "G"}, {"measurement": "Body Weight Week 3", "setting": "Sprague-Dawley rats; females, 7500 ppm diet", "result": "204 ± 22.0", "unit": "G"}, {"measurement": "Body Weight Week 7", "setting": "Sprague-Dawley rats; females, 7500 ppm diet", "result": "226 ± 26.3", "unit": "G"}, {"measurement": "Body Weight Week 13", "setting": "Sprague-Dawley rats; females, 7500 ppm diet", "result": "217 ± 27.7", "unit": "G"}, {"measurement": "Total Weight Gain % difference from control", "setting": "Sprague-Dawley rats; females, 7500 ppm diet", "result": "−76", "unit": "%"}, {"measurement": "Total Weight Gain", "setting": "Sprague-Dawley rats; females, 7500 ppm diet", "result": "29 ± 28.2", "unit": "Grams"}, {"measurement": "Body Weight Day 1", "setting": "Sprague-Dawley rats; [4]", "result": "252 ± 14.5", "unit": "G"}, {"measurement": "Body Weight Week 3", "setting": "Sprague-Dawley rats; [4]", "result": "379 ± 26.4", "unit": "G"}, {"measurement": "Body Weight Week 7", "setting": "Sprague-Dawley rats; [4]", "result": "471 ± 39.4", "unit": "G"}, {"measurement": "Body Weight Week 13", "setting": "Sprague-Dawley rats; [4]", "result": "528 ± 47.4", "unit": "G"}, {"measurement": "Total Weight Gain % difference from control", "setting": "Sprague-Dawley rats; [4]", "result": "−11", "unit": "%"}, {"measurement": "Total Weight Gain", "setting": "Sprague-Dawley rats; [4]", "result": "275 ± 38.7", "unit": "Grams"}, {"measurement": "Body Weight Day 1", "setting": "Sprague-Dawley rats; males, 2000 ppm diet", "result": "250 ± 13.5", "unit": "G"}, {"measurement": "Body Weight Week 3", "setting": "Sprague-Dawley rats; males, 2000 ppm diet", "result": "359 ± 23.7", "unit": "G"}, {"measurement": "Body Weight Week 7", "setting": "Sprague-Dawley rats; males, 2000 ppm diet", "result": "443 ± 36.9", "unit": "G"}, {"measurement": "Body Weight Week 13", "setting": "Sprague-Dawley rats; males, 2000 ppm diet", "result": "498 ± 43.0", "unit": "G"}, {"measurement": "Total Weight Gain % difference from control", "setting": "Sprague-Dawley rats; males, 2000 ppm diet", "result": "−20", "unit": "%"}, {"measurement": "Total Weight Gain", "setting": "Sprague-Dawley rats; males, 2000 ppm diet", "result": "247 ± 37.1", "unit": "Grams"}, {"measurement": "Body Weight Day 1", "setting": "Sprague-Dawley rats; males, 7500 ppm diet", "result": "250 ± 10.1", "unit": "G"}, {"measurement": "Body Weight Week 3", "setting": "Sprague-Dawley rats; males, 7500 ppm diet", "result": "342 ± 20.2", "unit": "G"}, {"measurement": "Body Weight Week 7", "setting": "Sprague-Dawley rats; males, 7500 ppm diet", "result": "425 ± 28.7", "unit": "G"}, {"measurement": "Body Weight Week 13", "setting": "Sprague-Dawley rats; males, 7500 ppm diet", "result": "470 ± 37.9", "unit": "G"}, {"measurement": "Total Weight Gain % difference from control", "setting": "Sprague-Dawley rats; males, 7500 ppm diet", "result": "−28", "unit": "%"}, {"measurement": "Total Weight Gain", "setting": "Sprague-Dawley rats; males, 7500 ppm diet", "result": "221 ± 34.0", "unit": "Grams"}, {"measurement": "dietary concentration at which effective repellency began", "setting": "Sprague-Dawley rats; single choice diet, 13 weeks", "result": "approximately 2000 ppm"}]}]}
